These results are taken from patent US20140135319A1, “6-SUBSTITUTED IMIDAZOPYRAZINES FOR USE AS MPS-1 AND TKK INHIBITORS IN THE TREATMENT OF HYPERPROLIFERATIVE DISORDERS” (BAYER INTELLECTUAL PROPERTY GMBH, priority 2010, published 2014).

By IC50 is commonly meant the point on the concentration scale where inhibition reaches its midpoint.

SMILES strings stand for the structures.

This experiment has as its target T1, human kinase Mps-1 (Homo sapiens, UniProt P33981).
T1 construct: N-terminally GST-tagged human full length recombinant Mps-1 kinase; GST (N); purchased Invitrogen, Karslruhe, Germany PV4071
T1 sequence (P33981 1-857): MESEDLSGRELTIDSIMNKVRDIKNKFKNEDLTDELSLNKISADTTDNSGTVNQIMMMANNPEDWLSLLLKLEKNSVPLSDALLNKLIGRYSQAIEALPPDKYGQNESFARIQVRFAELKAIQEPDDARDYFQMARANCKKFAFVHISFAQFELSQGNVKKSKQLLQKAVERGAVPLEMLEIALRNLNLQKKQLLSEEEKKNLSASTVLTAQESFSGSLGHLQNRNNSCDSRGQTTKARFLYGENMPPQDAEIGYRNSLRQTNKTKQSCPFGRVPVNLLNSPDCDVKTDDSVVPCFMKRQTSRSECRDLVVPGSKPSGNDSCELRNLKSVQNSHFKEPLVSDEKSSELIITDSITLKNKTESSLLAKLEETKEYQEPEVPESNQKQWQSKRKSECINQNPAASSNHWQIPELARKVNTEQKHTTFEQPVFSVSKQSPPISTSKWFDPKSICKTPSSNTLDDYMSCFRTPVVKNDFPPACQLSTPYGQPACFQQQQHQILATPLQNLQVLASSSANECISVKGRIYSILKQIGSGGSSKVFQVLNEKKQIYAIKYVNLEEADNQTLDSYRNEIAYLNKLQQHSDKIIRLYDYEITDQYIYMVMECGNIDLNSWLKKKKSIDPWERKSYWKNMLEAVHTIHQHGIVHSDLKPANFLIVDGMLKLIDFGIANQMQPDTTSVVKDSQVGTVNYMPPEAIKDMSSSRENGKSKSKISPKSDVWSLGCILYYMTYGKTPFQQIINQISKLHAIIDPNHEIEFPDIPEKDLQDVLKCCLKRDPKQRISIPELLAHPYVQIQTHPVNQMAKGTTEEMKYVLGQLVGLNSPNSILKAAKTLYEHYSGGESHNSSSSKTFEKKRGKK
In words: Mps-1 kinase assay (TR-FRET). The class given is biochemical. The conditions noted are these: GST-tagged human full length recombinant Mps-1; 10 μM ATP; 1 μM peptide substrate; 60 min at 22° C. A digest of the protocol: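 N-terminally GST-tagged full-length recombinant human Mps-1, about 1 nM final, phosphorylates a biotinylated peptide. Product detected by TR-FRET from Eu-anti-phospho-Ser/Thr antibody to streptavidin-XLent after 1 h at 22° C.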
(In TR-FRET formats the signal depends on donor and acceptor labels being close together.)
In the case of `Cc1cc(-c2cnc3c(NCCC(F)(F)F)nc(-c4cccnc4)cn23)ccc1C(=O)NC1CC1` [Example 1-70, N-cyclopropyl-2-methyl-4-{6-(pyridin-3-yl)-8-[(3,3,3-trifluoropropyl)amino]imidazo[1,2-a]pyrazin-3-yl}benzamide], the IC50 came out at 4.2 nM. For `Cc1cc(-c2cnc3c(NCCC(F)(F)F)nc(-c4ccoc4)cn23)ccc1C(=O)NC1CC1` [Example 1-71, N-cyclopropyl-4-{6-(furan-3-yl)-8-[(3,3,3-tri-fluoropropyl)amino]imidazo[1,2-a]pyrazin-3-yl}-2-methylbenzamide] the value was 3.9 nM; for `CCOc1ccc(-c2cn3c(-c4ccc(C(=O)NC5CC5)c(C)c4)cnc3c(NCCC(F)(F)F)n2)cn1` [Example 1-72, N-cyclopropyl-4-{6-(6-ethoxypyridin-3-yl)-8-[(3,3,3-trifluoropropyl)amino]imidazo[1,2-a]pyrazin-3-yl}-2-methyl-benzamide], 9.9 nM; for `Cc1cc(-c2cnc3c(NCCC(F)(F)F)nc(-c4cncnc4)cn23)ccc1C(=O)NC1CC1` [Example 1-73, N-cyclopropyl-2-methyl-4-{6-(pyrimidin-5-yl)-8-[(3,3,3-trifluoropropyl)amino]imidazo[1,2-a]pyrazin-3-yl}benzamide], 21.4 nM. Regarding `Cc1cc(-c2cnc3c(NCCC(F)(F)F)nc(-c4c(C)noc4C)cn23)ccc1C(=O)NC1CC1` [Example 1-74, N-cyclopropyl-4-{6-(3,5-dimethyl-1,2-oxazol-4-yl)-8-[(3,3,3-trifluoro-propyl)amino]imidazo [1,2-a]pyrazin-3-yl}-2-methylbenzamide], the IC50 was 4.1 nM. For `Cc1cc(-c2cnc3c(NCCC(F)(F)F)nc(-c4cccn4C)cn23)ccc1C(=O)NC1CC1` [Example 1-75, N-cyclopropyl-2-methyl-4-{6-(1-methyl-1H-pyrrol-2-yl)-8-[(3,3,3-trifluoro-propyl)amino]imidazo [1,2-a]pyrazin-3-yl} benzamide] the value was 3.8 nM. In the case of `Cc1cc(-c2cnc3c(NCCC(F)(F)F)nc(C4=CCNCC4)cn23)ccc1C(=O)NC1CC1` [Example 1-76, N-cyclopropyl-2-methyl-4-{6-(1,2,3,6-tetrahydro-pyridin-4-yl)-8-[(3,3,3-trifluoropropyl)amino]imidazo[1,2-a]pyrazin-3-yl}benzamide], the IC50 was found to be 13 nM.

Consider `Cc1cc(-c2cnc3c(NCCC(F)(F)F)nc(-c4cc[nH]n4)cn23)ccc1C(=O)NC1CC1` [Example 1-77, N-cyclopropyl-2-methyl-4-{6-(1H-pyrazol-3-yl)-8-[(3,3,3-trifluoropropyl)amino]imidazo[1,2-a]pyrazin-3-yl}benzamide], for which the IC50 came to 3.3 nM. With `Cc1cc(-c2cnc3c(NCCC(F)(F)F)nc(-c4cn[nH]c4)cn23)ccc1C(=O)NC1CC1` [Example 1-78, N-cyclopropyl-2-methyl-4-{6-(1H-pyrazol-4-yl)-8-[(3,3,3-trifluoro-propyl)amino]imidazo [1,2-a]pyrazin-3-yl} benzamide], the IC50 was found to be 4.7 nM. For `Cc1cc(-c2cnc3c(NCCC(F)(F)F)nc(C4=CCSCC4)cn23)ccc1C(=O)NC1CC1` [Example 1-79, N-cyclopropyl-4-{6-(3,6-dihydro-2H-thiopyran-4-yl)-8-[(3,3,3-trifluoro-propyl)amino]imidazo [1,2-a]pyrazin-3-yl}-2-methylbenzamide] the value was 2.8 nM; for `O=C(NC1CC1)c1ccc(-c2cnc3c(NCCCO)nc(-c4ccncc4)cn23)cc1` [Example 1-85, N-cyclopropyl-4-{8-[(3-hydroxypropyl)amino]-6-(pyridin-4-yl)imidazo[1,2-a]pyrazin-3-yl}benzamide], 9.1 nM. As to `N#CCCNc1nc(-c2cccc(CC(N)=O)c2)cn2c(-c3ccc(C(=O)NC4CC4)cc3)cnc12` [Example 1-86, 4-{6-[3-(2-amino-2-oxo-ethyl)phenyl]-8-[(2-cyano-ethyl)amino]imidazo[1,2-a]pyrazin-3-yl}-N-cyclo-propylbenzamide], the IC50 was 3.9 nM. Next, `Cc1ccc(-c2cn3c(-c4ccc(C(=O)NC5CC5)cc4)cnc3c(NCC(C)C)n2)cc1CC(N)=O` [Example 1-87, 4-{6-[3-(2-amino-2-oxoethyl)-4-methylphenyl]-8-(isobutyl-amino)imidazo[1,2-a]pyrazin-3-yl}-N-cyclopropyl-benzamide]: 2.3 nM. For `CC(C)CNc1nc(-c2cccc(CC(=O)O)c2)cn2c(-c3ccc(C(=O)NC4CC4)cc3)cnc12` [Example 1-88, (3-{3-[4-(cyclopropyl-carbamoyl)phenyl]-8-(iso-butylamino)imidazo[1,2-a]pyrazin-6-yl}phenyl)acetic acid] the value was 50.3 nM. On to `NC(=O)Cc1cccc(-c2cn3c(-c4ccc(C(=O)NC5CC5)cc4)cnc3c(NCCCO)n2)c1` [Example 1-89, 4-{6-[3-(2-amino-2-oxo-ethyl)phenyl]-8-[(3-hydroxy-propyl)amino]imidazo[1,2-a]pyrazin-3-yl}-N-cyclopropyl-benzamide], for which the 50% inhibitory concentration (IC50) amounted to 4.8 nM. For `CC(C)(O)CNc1nc(-c2ccncc2)cn2c(-c3ccc(C(=O)NC4CC4)cc3)cnc12` [Example 1-90, N-cyclopropyl-4-{8-[(2-hydroxy-2-methylpropyl)amino]-6-(pyridin-4-yl)imidazo[1,2-a]pyrazin-3-yl} benzamide] the value was 5 nM; for `CC(C)(O)CNc1nc(-c2cccc(CC(N)=O)c2)cn2c(-c3ccc(C(=O)NC4CC4)cc3)cnc12` [Example 1-91, 4-{6-[3-(2-Amino-2-oxo-ethyl)phenyl]-8-[(2-hydroxy-2-methylpropyl)amino]imidazo[1,2-a]pyrazin-3-yl}-N-cyclopropylbenzamide], 4 nM; for `Cn1nccc1CNc1nc(-c2cccc(CC(N)=O)c2)cn2c(-c3ccc(C(=O)NC4CC4)cc3)cnc12` [Example 1-92, 4-(6-[3-(2-Amino-2-oxo-ethyl)phenyl]-8-{[(1-methyl-1H-pyrazol-5-yl)methyl]amino}imidazo[1,2-a]pyrazin-3-yl)-N-cyclopropyl benzamide], 3.8 nM. For `Cn1cc(CNc2nc(-c3cccc(CC(N)=O)c3)cn3c(-c4ccc(C(=O)NC5CC5)cc4)cnc23)cn1` [Example 1-93, 4-(6-[3-(2-Amino-2-oxo-ethyl)phenyl]-8-{[(1-methyl-1H-pyrazol-4-yl)methyl]amino}imidazo[1,2-a]pyrazin-3-yl)-N-cyclopropyl benzamide] the value was 4.9 nM; for `Cn1ccc(CNc2nc(-c3cccc(CC(N)=O)c3)cn3c(-c4ccc(C(=O)NC5CC5)cc4)cnc23)n1` [Example 1-94, 4-(6-[3-(2-Amino-2-oxo-ethyl)phenyl]-8-{[(1-methyl-1H-pyrazol-3-yl)methyl]amino}imidazo[1,2-a]pyrazin-3-yl)-N-cyclopropyl benzamide], 4.9 nM; for `NCCCCNc1nc(-c2cccc(CC(N)=O)c2)cn2c(-c3ccc(C(=O)NC4CC4)cc3)cnc12` [Example 1-95, 4-{8-[(4-Aminobutyl)amino]-6-[3-(2-amino-2-oxoethyl)phenyl]imidazo[1,2-a]pyrazin-3-yl}-N-cyclo-propylbenzamide], 19.2 nM.

`NCCCCCNc1nc(-c2cccc(CC(N)=O)c2)cn2c(-c3ccc(C(=O)NC4CC4)cc3)cnc12` [Example 1-96, 4-{6-[3-(2-Amino-2-oxo-ethyl)phenyl]-8-[(5-amino-pentyl)amino]imidazo[1,2-a]pyrazin-3-yl}-N-cyclo-propylbenzamide]: the IC50 is 5.6 nM.
